Assay results published in US20260109732A1, “LIPID AMINES” (ModernaTX, Inc., priority 2021, published 2026).
Counter-ions that a name gives are not always drawn.

Columns and labels:
[1] = tested on: HeLa cells; assay: Luciferase Protein Expression Assay in HeLa Cells; assay type: cell-based, Human; conditions: LNPs encapsulating Luciferase mRNA, 25 ng per well, N=4 wells; 5 h serum-free then 24 h; ONE-Glo
Procedure: For HeLa studies evaluating luciferase protein expression, PEG-DMG-2K dissolved in a 20 mM TRIS buffer (pH 7.5) is added to the neutralized intermediate nanoparticle solution at a ratio of 1:6, bringing the solution to the final molar ratios of IL1:DSPC:cholesterol:PEG-DMG-2K of 48.5:11.1:38.9:1.5%. This nanoparticle formulation is then modified with lipid amines. In a typical example, nanoparticle formulation at a concentration of 0.18 mg/mL mRNA and a 0.56 mL volume is modified with lipid amine SA50 (467.2 nmol) prepared in buffer containing 20 mM TRIS, 14.3 mM sodium acetate, 32 g/L sucrose and 140 mM NaCl-pH 7.5 at a volumetric ratio of 1:1 of nanoparticle:buffer.
Lipid nanoparticle compositions were prepared in a manner analogous to that in example 2. To evaluate LNP cellular uptake and protein expression In Vitro, HeLa cells from ATCC.org (ATCC CCL-2) are used. The cells are cultured in complete Minimum Essential Medium (MVEM) and are plated in 96 well Cell Carrier Ultra plate with PDL coated surface (PerkinElmer) prior to running an experiment.
Cells were transfected with buffer control (PBS) or LNPs encapsulating Luciferase mRNA (25 ng per well; N=4 replicate wells) in serum-free MEM media. LNP transfected cells were incubated for 5 h, followed by media removal and supplementation with complete MEM media. Cells were further incubated in complete MEM media overnight (24 h). Following the 24 hr incubation, luciferase protein expression was measured using the ONE-Glo™ Luciferase Assay (Promega). Cells were lysed using 1× Passive Lysis Buffer (Cat. #E194A) for 10 min in a microplate mixer at room temperature. Luciferase in the supernatant was measured by adding Luciferase Assay Reagent (Cat. #E151A) containing luciferin. Bioluminescence was then immediately measured on a Synergy H1 plate reader (BioTek). The results shown in Table 3a show the Average Relative Light Units (RLU) of each sample tested.

[2] = Encapsulation of mRNA nanoparticles with lipid amines using Ribogreen assay; assay type: physicochemical
Procedure, shortened: (§1)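 DLS gave size and PDI, and Ribogreen gave encapsulation, for luciferase- or CFTR-mRNA nanoparticles (N:P 4.93). Particles came from IL1/DSPC/cholesterol/PEG-DMG-2K mixed at pH 4, mRNA-loaded, neutralized with TRIS pH 8.12, and then treated with lipid amine SA50 in pH 7.5 buffer.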

[3] = tested on: HeLa cells; assay: CFTR Protein Expression Assay in HeLa Cells; assay type: cell-based, Human; conditions: LNPs encapsulating CFTR mRNA, N=4 wells; 5 h serum-free then 24 h; immunofluorescence vs PBS control
Procedure, shortened: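 Readout is fold-change in per-cell CFTR immunofluorescence intensity (488 nm, confocal imaging) relative to PBS-treated cells, from 4 replicate wells. LNPs encapsulating CFTR mRNA were applied serum-free for 5 h, followed by 24 h in complete medium before PFA fixation.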

[4] = Diameter and PDI from DLS measurements of mRNA nanoparticles with lipid amines; assay type: physicochemical
Procedure, shortened: as §1

[5] = CFTR mRNA nanoparticle with lipid amine
[6] = Luciferase mRNA nanoparticle modified with lipid amine

For CC(C)CCC[C@@H](C)[C@H]1CC[C@H]2[C@@H]3CC=C4C[C@@H](OC(=O)CCC(=O)N(CCCN)CCCCCCCCN)CC[C@]4(C)[C@H]3CC[C@]12C [SA72, (3S,8S,9S,10R,13R,14S,17R)-10,13-Dimethyl-17-((R)-6-methylheptan-2-yl)-2,3,4,7,8,9,10,11,12,13,14,15,16,17-tetradecahydro-1H-cyclopenta[a]phenanthren-3-yl 4-((8-aminooctyl)(3-aminopropyl)amino)-4-oxobutanoate dihydrochloride], the “Average Relative Light Units ± Standard Deviation” value [1] was 30826.5 ± 5913.2 Relative Light Units, the “% Encapsulation (Ribogreen)” value [2, 5] was 99.8% and the “% Encapsulation (Ribogreen)” value [2, 6] was 99.1%. For the same compound, the “Average fold-change in CFTR signal intensity per cell compared to buffer control ± standard deviation” value [3] was 6.6 ± 0.6 fold-change, the “Diameter (nm)” value [4, 5] was 73.0 nm and the PDI [4, 5] was 0.11. The “Diameter (nm)” value [4, 6] was 72 nm and the PDI [4, 6] was 0.11.

In the case of CC(C)CCC[C@@H](C)[C@H]1CC[C@H]2[C@@H]3CC=C4C[C@@H](OC(=O)N(CCCCNCC(C)CN)CC(C)CN)CC[C@]4(C)[C@H]3CC[C@]12C (stereo partly drawn) [SA75, (3S,8S,9S,10R,13R,14S,17R)-10,13-dimethyl-17-((R)-6-methylheptan-2-yl)-2,3,4,7,8,9,10,11,12,13,14,15,16,17-tetradecahydro-1H-cyclopenta[a]phenanthren-3-yl (3-amino-2-methylpropyl)(4-((3-amino-2-methylpropyl)amino)butyl)carbamate trihydrochloride], the “Average Relative Light Units ± Standard Deviation” value [1] is reported as 37732.4 ± 6382.7 Relative Light Units, the “% Encapsulation (Ribogreen)” value [2, 5] is reported as 100% and the “% Encapsulation (Ribogreen)” value [2, 6] is reported as 98.8%. The “Average fold-change in CFTR signal intensity per cell compared to buffer control ± standard deviation” value [3] was 11.9 ± 0.6 fold-change, the “Diameter (nm)” value [4, 5] was 86.9 nm and the PDI [4, 5] was 0.11. For the same compound, the “Diameter (nm)” value [4, 6] was 74 nm and the PDI [4, 6] was 0.16.

In the case of CC(C)CCC[C@@H](C)[C@H]1CC[C@H]2[C@@H]3CC=C4C[C@@H](OC(=O)N(CCCCNCCC(C)N)CCC(C)N)CC[C@]4(C)[C@H]3CC[C@]12C (stereo partly drawn) [SA76, (3S,8S,9S,10R,13R,14S,17R)-10,13-dimethyl-17-((R)-6-methylheptan-2-yl)-2,3,4,7,8,9,10,11,12,13,14,15,16,17-tetradecahydro-1H-cyclopenta[a]phenanthren-3-yl (3-aminobutyl)(4-((3-aminobutyl)amino)butyl)carbamate trihydrochloride], the “Average Relative Light Units ± Standard Deviation” value [1] is reported as 38232.8 ± 4603.5 Relative Light Units, the “% Encapsulation (Ribogreen)” value [2, 5] is reported as 100% and the “% Encapsulation (Ribogreen)” value [2, 6] is reported as 98.1%. For the same compound, the “Average fold-change in CFTR signal intensity per cell compared to buffer control ± standard deviation” value [3] was 12.0 ± 1.1 fold-change, the “Diameter (nm)” value [4, 5] was 83.9 nm and the PDI [4, 5] was 0.11. The “Diameter (nm)” value [4, 6] was 75 nm and the PDI [4, 6] was 0.20.

For CC(C)CCC[C@@H](C)[C@H]1CC[C@H]2[C@@H]3CC=C4C[C@@H](OC(=O)N(CCCCNCC(C)(C)CN)CC(C)(C)CN)CC[C@]4(C)[C@H]3CC[C@]12C [SA77, (3S,8S,9S,10R,13R,14S,17R)-10,13-dimethyl-17-((R)-6-methylheptan-2-yl)-2,3,4,7,8,9,10,11,12,13,14,15,16,17-tetradecahydro-1H-cyclopenta[a]phenanthren-3-yl (3-amino-2,2-dimethylpropyl)(4-((3-amino-2,2-dimethylpropyl)amino)butyl)carbamate trihydrochloride], the “Average Relative Light Units ± Standard Deviation” value [1] was 39191.9 ± 4319 Relative Light Units, the “% Encapsulation (Ribogreen)” value [2, 5] was 100% and the “% Encapsulation (Ribogreen)” value [2, 6] was 98.2%. The “Average fold-change in CFTR signal intensity per cell compared to buffer control ± standard deviation” value [3] was 12.2 ± 1.3 fold-change, the “Diameter (nm)” value [4, 5] was 83.9 nm and the PDI [4, 5] was 0.13. For the same compound, the “Diameter (nm)” value [4, 6] was 74 nm and the PDI [4, 6] was 0.20.
